According to PubChem BioAssay AID1626 (SRMLSC, 2009):

Tested on: M. tuberculosis H37Rv growth inhibition
Test: M. tuberculosis H37Rv growth inhibitors, H37Rv strain (AID 1626)
Settings: for IC90: measured here: IC90 against H37Rv; for CC50: measured here: Vero cell cytotoxicity

SMILES | IC90 | CC50 | IC50
COc1ccc(NC(=O)CCCSc2ccccc2)cc1 | > 100 µM |  | 
O=C(c1cc(COc2ccc(F)cc2Cl)on1)N1CCC(OCc2cccnc2)CC1 | > 100 µM | 8.01 µM | 
O=C(C[n+]1cc(-c2ccccc2)n2c1CCC2)Nc1nc(-c2ccc(F)cc2)cs1 | 42.8 µM |  | 19.9 µM
COc1ccc2cc(C(=O)C3CCCN(Cc4cccc(C)n4)C3)ccc2c1 (stereo not drawn) | 14.7 µM | > 40 µM | 7 µM
Cn1cnc([N+](=O)[O-])c1S(=O)(=O)c1cccc(Cl)c1 | 11.8 µM | 18.7 µM | 10.9 µM
CC(C)(C)C1CCc2c(sc3nc(SCC(N)=O)nc(N)c23)C1 (stereo not drawn) | > 100 µM | > 40 µM | 24.8 µM
Cc1ccc(N=Nc2ccc(O)c3ncccc23)cc1C | > 100 µM | 3.1 µM | 14.1 µM
O=C(CSc1nnc(-c2cccs2)o1)OC1CCCCC1 | 7.65 µM |  | 2.23 µM
O=C(OCC#CCSc1nnc(-c2ccccc2)o1)c1ccco1 | 3.94 µM |  | 1.16 µM
Cc1nn(-c2ccccc2)c(Cl)c1/C=N/O | > 100 µM |  | 
CNC(=O)c1c(NC(=O)c2nc3ccccc3s2)sc2c1CCC2 |  | > 40 µM | 
CCC(=O)Nc1nc(-c2cc([N+](=O)[O-])cs2)cs1 | > 100 µM |  | < 0.195 µM
C#CCOCCOCCOCCNc1nc(N2CCN(C(=O)[C@H](Cc3cc4ccccc4[nH]3)n3cc([C@@H](N)CC(C)C)nn3)CC2)nc(N2CCN(C(=O)[C@H](Cc3cc4ccccc4[nH]3)n3cc([C@@H](N)CC(C)C)nn3)CC2)n1 | 7.58 µM |  | 4.23 µM
COc1ccc(O)c(C(=O)CC(=O)c2ccccc2C)c1 | > 100 µM | 17.1 µM | 17.2 µM
O=C(CSc1ncn[nH]1)Nc1ccc(Br)cc1F | > 100 µM | > 40 µM | 29.5 µM
CC[n+]1c(/C=C2\Sc3ccccc3N2C)ccc2cccc(C)c21 | 1.4 µM | 2.41 µM | 1.01 µM
CCOc1ccc(OCC)c(NC(=O)CN2CCN(c3cc(C)ccc3C)CC2)c1 | > 100 µM | > 40 µM | 
O=C1c2ccccc2C(Nc2ccc(-c3nc4ccccc4[nH]3)cc2)N1Cc1ccco1 (stereo not drawn) | 20.8 µM | > 40 µM | 9.03 µM
CC(C)(C)c1ccc(-c2nc(NCc3cccnc3)c3ccccc3n2)cc1 | 7.46 µM | > 40 µM | 4.81 µM
CSc1ccc(N=Nc2c(C)[nH]n(C)c2=O)cc1 | > 100 µM | > 40 µM | 7.43 µM

SMILES | IC90 | CC50 | IC50
Cc1nn(-c2ccccc2)nc1C(=O)c1c(C)[nH]n(-c2ccccc2)c1=O | 13.6 µM | 37 µM | 8.35 µM
CCc1ccc2c(c1)/C(=C/C(=O)c1cccs1)C(=O)N2 | 12.2 µM | 18.9 µM | 3.06 µM
CCC(=O)OCCNc1cc(Sc2nccn2C)c2nonc2c1[N+](=O)[O-] | 27.4 µM | 18.3 µM | 20.2 µM
Cc1ccc(N/C(N)=N/c2nc(C)cc(N3CCCCC3)n2)c(C)c1 | 3.68 µM | 9.19 µM | 2.17 µM
O=C1N=C2N(CCN3CCCCC3)c3ccccc3N2/C1=C\c1ccc([N+](=O)[O-])o1 | 1.6 µM | 4.9 µM | 1.56 µM
O=C(c1cc2nc(-c3ccc(F)cc3)cc(C(F)(F)F)n2n1)N1CCCCC1c1cccnc1 (stereo not drawn) | 14 µM | > 40 µM | 9.18 µM
O=C(/C=C/c1ccc(Cl)cc1Cl)c1cccnc1 | 3.35 µM | 30.6 µM | 2.97 µM
Cc1nn(-c2ccccc2)c2c1C(c1ccc(O)c(O)c1)N1C(=N2)C(Nc2ccccc2)=Nc2ccccc21 (stereo not drawn) | 2.11 µM | 8.02 µM | 1.5 µM
O=[N+]([O-])c1ccc(-c2ccc(/C=N/O)o2)cc1 | > 100 µM |  | 
COc1ccc(C(CCN2CCCC(C)C2)c2c(OC)cc(OC)c3c(-c4ccccc4)cc(=O)oc23)cc1 (stereo not drawn) | 10.2 µM | 14.1 µM | 7.53 µM
COc1cc(OC)c2c(-c3ccccc3)cc(=O)oc2c1C(CCN1CCCC(C)C1)c1ccc2c(c1)OCO2 (stereo not drawn) | 10.4 µM | 24.3 µM | 5.64 µM
Cc1nc2ccc(NC(=O)COc3cccc(F)c3)cc2s1 | > 100 µM |  | 20.6 µM
COc1ccc(/C=C2\Sc3ccc(C(=O)NCc4cccnc4)cc3N(C)C2=O)cc1OC | 31.1 µM |  | 13 µM
Cc1cccc(C=Nc2ccc3c(c2)oc2ccccc23)c1O | > 100 µM |  | 1.11 µM
COc1ccc(-n2c(C)nc3sc4c(c3c2=O)CCCC4)cc1 | 13.3 µM |  | 11.7 µM
Cc1ccc(CNc2nc(-c3cccs3)nc3ccccc23)cc1 | 18.7 µM | > 40 µM | 9.84 µM
CCn1ccnc1CN1CCCC(C(=O)c2ccc3cc(OC)ccc3c2)C1 (stereo not drawn) | 25.5 µM | > 40 µM | 10.9 µM
CC(C)(C)n1c(O)c(C=Nc2ccc3c(c2)CCC3)c(=O)[nH]c1=O | > 100 µM | > 40 µM | 37.8 µM
O=C(Nc1nc(-c2ccccn2)cs1)C1CCCC1 | 5.83 µM | > 40 µM | 2.54 µM
